The values below come from patent publication US6562854B2, “Compositions comprising a substituted benzimidazole useful for treating immunomediated inflammatory disorders” (Axys Pharmaceuticals, Inc., priority 1994, dated 2003).

Structures can show the parent of a compound that is named as a salt.

The test system of the experiment is tryptase purified from human lung or skin tissue preparations or human mast cell line (HMC-1). As to the kind of experiment: In vitro Tryptase Inhibition Assay. It counts as biochemical. To be noted: substrate tosyl-Gly-Pro-Lys-p-nitroanilide; Tris-HCl pH 8.2; zinc chloride 150 μM; 1 hour preincubation at room temperature; read-out: Ki (apparent inhibition constant, tryptase inhibitory activity). The procedure: Tryptase solution ([…]) was prepared by dissolving tryptase purified from human lung or skin tissue preparations or human mast cell line (HMC-1) or obtained from commercial sources, e.g., ICN Biomeidals, Irvine, Calif., Athens Research & Technology, Athens, Ga., etc., in a solvent mixture comprising: 10 mM 2-N-morpholinoethane sulfonic acid, 2 mM CaCl2, 20% glycerol and 50 µg/mL heparin. Substrate solution containing 2 mM synthetic tripeptide (tosyl-Gly-Pro-Lys-p-nitroanilide) was obtained from Sigma. Test Compound solutions were prepared by diluting a stock solution (1 mg of test Compound in 200 μL of dimethylsulfoxide (DMSO)) by ten-fold into assay buffer (comprising: Tris-HCl (pH 8.2), 50 mM; NaCl, 100 MM; 0.05% polyoxyethylenesorbitan monolaurate (Tween-20®); and zinc chloride, 150 μM) and then making seven additional three-fold dilutions into 10% DMSO in assay buffer.
Aliquots (50 μL) from each of the eight dilutions of test compound solution were added to separate wells in a 96-well U-bottom microtiter plate. Typtase solution (25 μL) was added to each well and the solutions were mixed 1 hour at room temperature. Substrate solution (25 μL) was added to initiate the enzymatic reaction and the microtiter plates were immediately transferred to a UVIMAX Kinetic Microplate Reader (Molecular Devices). The hydrolysis of the chromogenic substrate was followed spectrophotometrically at 405 nanometers for five minutes. Initial velocity measurements were calculated from the progress curves by kinetic analysis program (BatchKi; Petr Kuzmic, University of Wisconsin, Madison, Wis.). Apparent inhibition constants (K) were calculated from the enzyme progress curves using standard mathematical models.
`CCCCOC(=O)c1ccccc1OCCNC(=O)c1ccc2nc(C(C)c3nc4cc(O)ccc4[nH]3)n(C)c2c1` (stereo not drawn) [Compound 37, butyl 2-(2-{2-[l-(5-hydroxy-1H-benzoimidazol-2-yl)ethyl]-3-methyl-3H-benzoimidazol-5-ylcarbonylamino}ethoxy)benzoate]: the Ki was determined as 2 nM.

With `CCOC(=O)c1ccccc1OCCNC(=O)c1ccc2nc(C(C)c3nc4c([nH]3)CCN(C(C)=N)C4)n(C)c2c1` (centres unmarked) [Compound 182, ethyl 2-[2-(2-{1-[5-(1-iminoethyl)-4,5,6,7-tetrahydro-1H-imidazo[4,5-c]pyridin-2-yl]ethyl}-3-methyl-3H-benzoimidazol-5-ylcarbonylamino)ethoxy]benzoate], the Ki turned out to be 4 nM.

`NCc1ccc2[nH]c(Cc3nc4cc(NC(=O)OCCc5ccccc5)ccc4[nH]3)nc2c1` [Compound 27, 2-Phenylethyl 2-(5-aminomethyl-1H-benzoimidazol-2-ylmethyl)-1H-benzoimidazole-5-carbamate trifluoroacetate]: the Ki was found to be 600 nM.

Turning to `NCc1ccc2[nH]c(Cc3nc4cc(C(=O)NCCCCc5ccccc5)ccc4[nH]3)nc2c1` [Compound 1, 2-(5-Aminomethyl-1H-benzoimidazol-2-ylmethyl)-N-(4-phenylbutyl)-1H-benzoimidazole-5-carboxamide trifluoroacetate], the Ki turned out to be 90 nM.

In the case of `CC(c1nc2cc(F)c(F)cc2[nH]1)c1nc2ccc(C(=O)NCCOc3ccccc3C(=O)O)cc2n1C` (centres unmarked) [Compound 81, 2-(2-{2-[1-(5,6-difluoro-1H-benzoimidazol-2-yl)ethyl]-3-methyl-3H-benzoimidazol-5-ylcarbonylamino}ethoxy)benzoic acid], the Ki turned out to be 10 nM.

Consider `N=C(N)Nc1ccc2[nH]c(C(=O)c3nc4ccc(C(=O)NCCc5cccc6ccccc56)cc4n3CC(O)CO)nc2c1` (centres unmarked) [Compound 134, 2-(5-guanidino-1H-benzoimidazol-2-ylcarbonyl)-3-(2,3-dihydroxy)propyl-N-(2-naphth-1-ylethyl)-3H-benzoimidazole-5-carboxamide], for which the Ki was 0.02 nM.

On to `N=C(N)Nc1ccc2[nH]c(Cc3nc4ccc(C(=O)NCCc5cccc6ccccc56)cc4n3CCO)nc2c1` [Compound 152, 2-(5-guanidino-1H-benzoimidazol-2-ylmethyl)-3-(2-hydroxy)ethyl-N-(2-naphth-1-ylethyl)-3H-benzoimidazole-5-carboxamide], for which the Ki was found to be 0.5 nM.

`N=C(N)Nc1ccc2[nH]c(Cc3nc4ccc(C(=O)NCCc5cccc6ccccc56)cc4n3CC(O)CO)nc2c1` (centres unmarked) [Compound 132, 2-(5-guanidino-1H-benzoimidazol-2-ylmethyl)-3-(2,3-dihydroxy)propyl-N-(2-naphth-1-ylethyl)-3H-benzoimidazole-5-carboxamide]: the Ki amounted to 0.02 nM.

With `CCOC(=O)c1ccccc1OCCNC(=O)c1ccc2nc(C(C)c3nc4cc(OC(=O)OC)ccc4n3C(=O)C(C)C)n(C)c2c1` (centres unmarked) [Compound 84, Ethyl 2-(2-{2-[1-(1-isobutyryl-5-methoxycarbonyloxy-1H-benzoimidazol-2-yl)ethyl]-3-methyl-3H-benzoimidazol-5-ylcarbonylamino}ethoxy)benzoate], the Ki was found to be 2600 nM.

Regarding `CCOC(=O)c1ccccc1OCCNC(=O)N1CCc2[nH]c(C(C)c3nc4c([nH]3)CCN(C(C)=N)C4)nc2C1` (centres unmarked) [Compound 203, ethyl 2-[2-(2-{1-[5-(1-iminoethyl)-4,5,6,7-tetrahydro-1H-imidazo[4,5-c]pyridin-2-yl]ethyl}-1,4,6,7-tetrahydroimidazo[4,5-c]pyridin-5-ylcarbonylamino)ethoxy]benzoate], the Ki is 8 nM.

Consider `COCCn1c(C(C)c2nc3c([nH]2)CCN(C(C)=N)C3)nc2ccc(C(=O)NCCOc3ccccc3C(=O)O)cc21` (centres unmarked) [Compound 194, 2-[2-(2-{1-[5-(1-iminoethyl)-4,5,6,7-tetrahydro-1H-imidazo [4,5-c]pyridin-2-yl]ethyl)-3-(2-methoxyethyl)-3H-benzoimidazol-5-ylcarbonylamino)ethoxy]benzoic acid], for which the Ki worked out at 9 nM.

Regarding `N=C(N)Nc1ccc2[nH]c(Cc3nc4ccc(C(=O)NCCc5cccc6ccccc56)cc4n3CCCO)nc2c1` [Compound 138, 2-(5-guanidino-1H-benzoimidazol-2-ylmethyl)-3-(3-hydroxy)propyl-N-(2-naphth-1-ylethyl)-3H-benzoimidazole-5-carboxamide], the Ki was found to be 0.2 nM.

Regarding `COc1ccccc1OCCNC(=O)c1ccc2nc(C(C)c3nc4cc(O)ccc4[nH]3)n(C)c2c1` (centres unmarked) [Compound 30, 2-[1-(5-Hydroxy-1H-benzoimidazol-2-yl)ethyl]-N-[2-(2-methoxyphenoxy)ethyl]-3-methyl-3H-benzoimidazole-5-carboxamide], the Ki worked out at 9 nM.

As to `CCOC(=O)c1ccccc1OCCNC(=O)c1ccc2nc(C(C)c3nc4c(F)cc(F)c(F)c4[nH]3)n(C)c2c1` (centres unmarked) [Compound 75, ethyl 2-(2-{2-[1-(4,6,7-trifluoro-1H-benzoimidazol-2-yl)ethyl]-3-methyl-3H-benzoimidazol-5-carbonylamino}ethoxy}benzoate], the Ki amounted to 30 nM.

Regarding “2-(5-Guanidino-1H-benzoimidazol-2-ylmethyl)-N-(2-naphthalen-1-ylethyl)-3-methyl-3H-benzoimidazole-5-carboxyamide [Compound 28]”, the Ki was 0.07 nM.

Regarding `CC(=N)N1CCc2[nH]c(C(C)c3nc4ccc(C(=O)NCCOc5ccccc5C(=O)O)cc4n3C)nc2C1` (centres unmarked) [Compound 74, 2-[2-(2-{1-[5-(1-iminoethyl)-4,5,6,7-tetrahydro-1H-imidazo[4,5-c]pyridin-2-yl]ethyl}-3-methyl-3H-benzoimidazol-5-ylcarbonylamino)ethoxy]benzoic acid], the Ki turned out to be 6 nM.

Regarding `CC(=N)N1CCc2[nH]c(Cc3nc4ccc(C(=O)NCCc5c(O)ccc6ccccc56)cc4n3C)nc2C1` [Compound 127, 2-[5-(1-iminoethyl)-4,5,6,7-tetrahydro-1H-imidazo[4,5-c]pyridin-2-ylmethyl]-3-methyl-N-[2-(2-hydroxynaphth-1-yl)ethyl]-3H-benzoimidazole-5-carboxamide], the Ki came to 6 nM.

With `CC(=N)N1CCc2[nH]c(C(=O)c3nc4ccc(C(=O)NCCc5cccc6ccccc56)cc4n3C)nc2C1` [Compound 116, 2-[5-(1-iminoethyl)-4,5,6,7-tetrahydro-1H-imidazo[4,5-c]pyridin-2-ylcarbonyl]-3-methyl-N-(2-naphth-1-ylethyl)-3H-benzoimidazole-5-carboxamide], the Ki came to 6 nM.

For the compound `CC(=N)N1CCc2[nH]c(Cc3nc4ccc(C(=O)NCC(O)c5cccc6ccccc56)cc4n3C)nc2C1` (centres unmarked) [Compound 126, 2-[5-(1-iminoethyl)-4,5,6,7-tetrahydro-1H-imidazo[4,5-c]pyridin-2-ylmethyl]-3-methyl-N-(2-hydroxy-2-naphth-1-ylethyl)-3H-benzoimidazole-5-carboxamide], the Ki came out at 8 nM.

As for `CC(=N)N1CCc2[nH]c(Cc3nc4ccc(C(=O)NCCc5ccc(O)c6ccccc56)cc4n3C)nc2C1` [Compound 128, 2-[5-(1-iminoethyl)-4,5,6,7-tetrahydro-1H-imidazo[4,5-c]pyridin-2-ylmethyl]-3-methyl-N-[2-(4-hydroxynaphthal-1-yl)ethyl]-3H-benzoimidazole-5-carboxamide], the Ki worked out at 2 nM.
